# Experimental data reported in US7202265B2, “Indolinone combinatorial libraries and related products and methods for the treatment of disease” (Sugen, Inc., priority 1997, dated 2007).
# Test system: human MET
# Assay: MET biochemical kinase assay
# Set-up: concentration or dose not given beside the values
# Description: (d) MET Biochemical Kinase Assay
# A met biochemical kinase assay may be performed for met generally as described above for other kinases by substituting that or the other kinases. In particular, ELISA plates are coated with goat anti-rabbit Fc antibodies, which are used to capture commercially available (from Santa Cruz Biotechnology) rabbit polyclonal antibodies to the cytoplasmic domain of human MET. […] The chimeric receptors, or MET, from these lysates are captured on the antibody coated plates. After washing away extraneous proteins, test compounds are added and an in vitro kinase assay is performed by addition of an appropriate kinase buffer (containing ATP, divalent metal ions, etc.). Incorporation of phosphate into the captured receptors is detected with an anti-phosphotyrosine antibody conjugate with horse radish peroxidase using TMB as a substrate for calorimetric detection.
row,Met Kinase % Inhibition [%],Compound
1,51.0,Cc1ccsc1C=C1C(=O)Nc2ccc(I)cc21 [10729/B05]
2,−19.4,CNS(=O)(=O)c1ccc2c(c1)C(=Cc1cc(C)c(OC)c(C)c1)C(=O)N2 [10733/D06]
3,5.0,COc1ccc(C=C2C(=O)Nc3ccc(CCCl)cc32)cc1OC [10720/G04]
4,24.0,CCc1cc(CC)c(C=C2C(=O)Nc3ccc(S(=O)(=O)NC)cc32)[nH]1 [10727/D03]
5,16.0,CNS(=O)(=O)c1ccc2c(c1)C(=Cc1ccc(Br)cc1)C(=O)N2 [10717/D08]
6,12.0,CC(C)(C)c1cc(C=C2C(=O)Nc3ccc(CCCl)cc32)cc(Br)c1O [10721/G10]
7,84.0,CCc1ccc(C=C2C(=O)Nc3ccc(S(=O)(=O)Nc4ccc(C(F)(F)F)cc4)cc32)o1 [10724/E10]
8,24.0,O=C1Nc2ccc(CCCl)cc2C1=Cc1ccc(O)cc1 [10719/G07]
9,47.0,O=C1Nc2c(Br)cc(Br)cc2C1=Cc1ccc(F)cc1Cl [10719/A09]
10,−6.2,COc1ccc(C=C2C(=O)Nc3ccc(S(=O)(=O)N4CCOCC4)cc32)c(OC)c1OC [10730/F02]
11,95.0,CCc1ccc(C=C2C(=O)Nc3ccc(I)cc32)o1 [10724/B10]
12,9.7,N#Cc1cccc(C=C2C(=O)Nc3c(Br)cc(Br)cc32)c1 [10727/A08]
13,63.0,COc1c(I)cc(C=C2C(=O)Nc3ccc(CCCl)cc32)cc1C(C)(C)C [10732/G11]
14,39.0,CCc1c(C)[nH]c(C=C2C(=O)Nc3ccc(S(=O)(=O)Nc4ccc(C(F)(F)F)cc4)cc32)c1C [10719/E05]
15,27.0,O=C1Nc2ccc(S(=O)(=O)Nc3ccc(C(F)(F)F)cc3)cc2C1=Cc1cccn1-c1ccc(Cl)cc1 [10724/E09]
16,83.0,Cc1c(Br)ccc2c1C(=Cc1ccc(O)cc1O)C(=O)N2 [10723/C08]
17,2.3,O=C1Nc2ccc(CCCl)cc2C1=Cc1cc2ccccc2o1 [10724/G07]
18,−0.7,O=C1Nc2ccc(S(=O)(=O)Nc3ccc(C(F)(F)F)cc3)cc2C1=Cc1cccc(Oc2ccccc2)c1 [10729/E06]
19,72.0,CC(C)(C)c1cc(C=C2C(=O)Nc3ccc(I)cc32)cc(Cl)c1O [10722/B08]
20,9.6,CNS(=O)(=O)c1ccc2c(c1)C(=Cc1ccc(OC)cc1)C(=O)N2 [10726/D11]
21,1.6,CC(C)(C)c1cc(C=C2C(=O)Nc3ccc(S(=O)(=O)Nc4ccc(C(F)(F)F)cc4)cc32)cc(Cl)c1OCc1ccccc1 [10732/E10]
22,24.0,CCOc1ccccc1C=C1C(=O)Nc2ccc(S(=O)(=O)Nc3ccc(C(F)(F)F)cc3)cc21 [10717/E02]
23,3.9,COc1c(C(C)C)cc(C=C2C(=O)Nc3ccc(S(=O)(=O)Nc4ccc(C(F)(F)F)cc4)cc32)cc1C(C)C [10732/E03]
24,27.0,COc1ccc2[nH]cc(C=C3C(=O)Nc4ccc(S(=O)(=O)Nc5ccc(C(F)(F)F)cc5)cc43)c2c1 [10731/E09]
25,79.0,COc1cc(Br)cc(C=C2C(=O)Nc3ccc(CCCl)cc32)c1O [10733/G08]
26,9.8,CNS(=O)(=O)c1ccc2c(c1)C(=Cc1ccccc1O)C(=O)N2 [10720/D05]

row,Met Kinase % Inhibition [%],Compound
1,1.8,CC(C)(C)c1cc(C=C2C(=O)Nc3ccc(CCCl)cc32)cc(C(C)(C)C)c1OCc1ccccc1 [10733/G05]
2,−5.1,Cc1c(Br)ccc2c1C(=Cc1ccc(F)cc1C(F)(F)F)C(=O)N2 [10719/C11]
3,4.7,COC(=O)Cc1c(Cl)[nH]c(C=C2C(=O)Nc3ccc(CCCl)cc32)c1C(=O)OC [10725/G09]
4,5.3,Cc1c(Br)ccc2c1C(=Cc1cccn1-c1ccc(Cl)cc1)C(=O)N2 [10724/C09]
5,8.7,CCOC(=O)CCc1c(C(=O)OCC)[nH]c(C=C2C(=O)Nc3ccc(Br)c(C)c32)c1CC(=O)OCC [10718/C05]
6,76.0,CNS(=O)(=O)c1ccc2c(c1)C(=Cc1cc(Cl)cc(Br)c1O)C(=O)N2 [10727/D04]
7,−7.4,Cc1cn(C)cc1C=C1C(=O)Nc2ccc(S(=O)(=O)Nc3ccc(C(F)(F)F)cc3)cc21 [10726/E06]
8,0.8,COc1c(C)cc(C=C2C(=O)Nc3ccc(CCCl)cc32)cc1C [10733/G06]
9,41.0,Cc1ccc(C=C2C(=O)Nc3ccc(S(=O)(=O)Nc4ccc(C(F)(F)F)cc4)cc32)s1 [10717/E07]
10,71.0,C=C(C)C1CC=C(C=C2C(=O)Nc3ccc(I)cc32)CC1 (stereo not shown) [10731/B04]
11,1.6,O=C1Nc2ccc(S(=O)(=O)N3CCOCC3)cc2C1=Cc1ncc[nH]1 [10720/F11]
12,17.0,C=C(C)C1CC=C(C=C2C(=O)Nc3ccc(S(=O)(=O)N4CCOCC4)cc32)CC1 (stereo not shown) [10731/F04]
13,52.0,COC(=O)c1[nH]c(C)c(C=C2C(=O)Nc3ccc(CCCl)cc32)c1C(=O)OC [10718/G07]
14,30.0,Cc1c(Br)ccc2c1C(=Cc1ncc[nH]1)C(=O)N2 [10720/C11]
15,6.7,CC(C)(C)c1cc(C=C2C(=O)Nc3ccc(I)cc32)cc(C(C)(C)C)c1O [10721/B11]
16,51.0,O=C1Nc2ccc(CCCl)cc2C1=Cc1csc([N+](=O)[O-])c1 [10722/G09]
17,4.9,Cc1c(Br)ccc2c1C(=Cc1sc3scc(C)c3c1C)C(=O)N2 [10724/C11]
18,78.0,O=C1Nc2ccc(I)cc2C1=CC(c1cccs1)C(F)(F)F (stereo not shown) [10732/B02]
19,8.9,Cc1c(Br)ccc2c1C(=Cc1ccccc1Sc1ccc(Cl)cc1)C(=O)N2 [10727/C05]
20,−11.6,Cc1c(Br)ccc2c1C(=Cc1coc3ccc([N+](=O)[O-])cc3c1=O)C(=O)N2 [10731/C07]
21,94.0,O=C1Nc2ccc(CCCl)cc2C1=Cc1cc(Cl)cc(Br)c1O [10727/G04]
22,55.0,CCN(CC)c1ccc(C=C2C(=O)Nc3ccc(S(=O)(=O)NC)cc32)c(O)c1 [10734/D05]
23,71.0,O=C1Nc2ccc(CCCl)cc2C1=Cc1ccc([N+](=O)[O-])c(O)c1 [10724/G04]
24,−6.8,CNS(=O)(=O)c1ccc2c(c1)C(=Cc1ccc(Cl)s1)C(=O)N2 [10721/D07]
25,28.0,CCN(CC)c1ccc(C=C2C(=O)Nc3ccc(S(=O)(=O)Nc4ccc(C(F)(F)F)cc4)cc32)cc1 [10727/E02]
26,1.3,O=C1Nc2ccc(CCCl)cc2C1=Cc1ccc(F)cc1Cl [10719/G09]

row,Met Kinase % Inhibition [%],Compound
1,−16.4,Cc1cc(C=C2C(=O)Nc3ccc(S(=O)(=O)N4CCOCC4)cc32)cc(C)c1OCc1ccccc1 [10733/F07]
2,21.0,CNS(=O)(=O)c1ccc2c(c1)C(=Cc1cccn1C)C(=O)N2 [10717/D04]
3,28.0,CNS(=O)(=O)c1ccc2c(c1)C(=Cc1[nH]c(Cl)c(CC(=O)OC)c1C(=O)OC)C(=O)N2 [10725/D09]
4,−10.1,Cc1cc(C=C2C(=O)Nc3ccc(S(=O)(=O)Nc4ccc(C(F)(F)F)cc4)cc32)cc(C)c1OCc1ccccc1 [10733/E07]
5,37.0,O=C1Nc2ccc(CCCl)cc2C1=Cc1ccccc1O [10720/G05]
6,27.0,Cc1c(O)ccc(C=C2C(=O)Nc3ccc(CCCl)cc32)c1O [10718/G09]
7,43.0,Cc1c(Br)ccc2c1C(=Cc1cc(Cl)c(OCc3ccccc3)c(C(C)(C)C)c1)C(=O)N2 [10732/C10]
8,79.0,CCCCN(CCCC)c1ccc(C=C2C(=O)Nc3c(Br)cc(Br)cc32)cc1 [10722/A10]
9,74.0,O=CN1CCN(c2ccc(C=C3C(=O)Nc4ccc(I)cc43)cc2)CC1 [10725/B07]
10,9.4,O=C1Nc2c(Br)cc(Br)cc2C1=Cc1ccc[nH]1 [10717/A09]
11,86.0,CC(C)c1ccc2occ(C=C3C(=O)Nc4ccc(I)cc43)c(=O)c2c1 [10731/B05]
12,32.0,CCOC(=O)c1c(C)[nH]c(C=C2C(=O)Nc3ccc(S(=O)(=O)NC)cc32)c1C [10718/D02]
13,3.7,Cc1c(Br)ccc2c1C(=Cc1cc(C(C)(C)C)c(O)c(C(C)(C)C)c1)C(=O)N2 [10721/C11]
14,85.0,O=C1Nc2ccc(S(=O)(=O)Nc3ccc(C(F)(F)F)cc3)cc2C1=Cc1ccncc1 [10729/E09]
15,−0.8,COc1cccc(C=C2C(=O)Nc3ccc(CCCl)cc32)c1OC [10727/G11]
16,24.0,O=C1Nc2ccc(CCCl)cc2C1=Cc1ccc(F)cc1C(F)(F)F [10719/G11]
17,34.0,O=C1Nc2ccc(CCCl)cc2C1=Cc1c[nH]c2ccccc12 [10717/G06]
18,27.0,N#Cc1cccc(C=C2C(=O)Nc3ccc(S(=O)(=O)Nc4ccc(C(F)(F)F)cc4)cc32)c1 [10727/E08]
19,14.0,COc1c(C(C)C)cc(C=C2C(=O)Nc3ccc(Br)c(C)c32)cc1C(C)C [10732/C03]
20,26.0,Cc1cc(C=C2C(=O)Nc3ccc(S(=O)(=O)N4CCOCC4)cc32)sc1C [10721/F04]
21,92.0,CNS(=O)(=O)c1ccc2c(c1)C(=Cc1cc(Br)cc(Br)c1O)C(=O)N2 [10734/D07]
22,−4.9,CNS(=O)(=O)c1ccc2c(c1)C(=Cc1ccc(O)c(C(C)(C)C)c1)C(=O)N2 [10721/D09]
23,24.0,COc1c(C(C)(C)C)cc(C=C2C(=O)Nc3c(Br)cc(Br)cc32)cc1C(C)(C)C [10733/A04]
24,4.7,O=C1Nc2ccc(CCCl)cc2C1=Cc1ccc(F)cc1 [10717/G05]
